In EP3949771B1, “HEAT-NOT-BURN SMOKING ARTICLE, METHOD FOR USING SAME, AND HEAT-NOT-BURN SMOKING SYSTEM” (Japan Tobacco Inc., priority 2019, dated 2020):

Key:
[1] = First acid dissociation constant of the added acid; assay type: physicochemical; conditions: in water at 25°C
Procedure: The organic acid preferably has a first acid dissociation constant of preferably 4.0 to 5.0, more preferably 4.1 to 4.8, and further preferably 4.2 to 4.5. […] In the present invention, the term "first acid dissociation constant" indicates an acid dissociation constant in water at 25°C and is a value measured, for example, by acid-base titration, absorption spectroscopy, or capillary electrophoresis.

[2] = Evaluation of solubility of acids in glycerol (visual); assay type: physicochemical; conditions: for Solubility (-): 10 mg of acid in 1,000 mg of glycerol at 25°C, visual, 5 grades
Procedure: The organic acid is preferably soluble in the aerosol former at 25°C. […] When the resulting solution is colorless and transparent or the majority of the organic acid added is invisible due to dissolution, the organic acid is determined as "soluble." Since a solution of a polyol, such as glycerol, is difficult to measure at room temperature due to the high viscosity, it is desirable to observe the solution after appropriately dissolving once at a high temperature, followed by cooling to room temperature.
The evaluation was made by 5 grades from 1 of "no dissolution" to 5 of "complete dissolution." Herein, a grade of 3 or higher was regarded as "soluble."

| Compound | First acid dissociation constant (-) [1] | Solubility (-) [2] | Solubility in glycerol as an aerosol former (in words) ([2]; 25°C) |
| --- | --- | --- | --- |
| O=C(O)CCCCC(=O)O [Adipic acid] | 4.42 |  |  |
| CC(=O)C(=O)O [Pyruvic acid] | 2.50 | 5 |  |
| CCCCCCCCCCCCCCCCCCC(=O)O [Nonadecanoic acid] | 5.10 | 1 |  |
| CC(=O)CCC(=O)O [Levulinic acid] | 4.44 | 5 | soluble |
